The source of these data is patent US20120230970A1, “METHOD FOR TREATING PERVASIVE D[…]” (CUREMARK, LLC, priority 1999, published 2012).

For test [1], the system named is children diagnosed with Autism. Particulars: secretin given as diagnostic procedure during upper gastrointestinal endoscopy; Horvath et al. 1998; cited from earlier work.
In test [2] the test system is autistic children. The test is described as follows: CARS (Childhood Autism Rating Scale) test pre- and post-secretin administration (Experiment 1). The test is classed as in vivo, human. The note with it: 16 autistic children; 3 weeks post infusion vs pre-secretin. The method, then:
Upon determining that a given child was likely to benefit from secretin administration based on the results of the fecal chymotrypsin test, the child was administered a CARS (Childhood Autism Rating Scale) test prior to being scheduled for secretin infusion.
For each of the 16 autistic children tested, a preferred secretin infusion process according to the present invention was performed involving the administering of 1 U/kg of body weight of Secretin-Ferring for a period of nine months at intervals of approximately 6 weeks. In addition, another CARS test was administered to each of the 16 autistic children 3 weeks post secretin administration to determine if their autism had changed post infusion.
A preferred secretin infusion process includes the initial step of prepping an arm of the candidate child with an IV injection of saline. A test dose of 1 U of Secretin-Ferring is then administered to the child. Approximately one minute after, infusion, the child is examined for signs of allergic reaction including rash, increased heart rate, and increase of blood pressure. […] Subsequently, each child receives a 1 U/kg of body weight infusion of Secretin-Ferring approximately every 6 weeks for 9 months. It is to be understood that any commercially available form of secretin may be used. […]

For test [3], the system named is autistic children. Kind of test: Fecal Chymotrypsin Test after secretin infusion in autistic children (Experiments 1 and 2). The format is in vivo, human. The note with it: 6 Months Post-Secretin Administration. The method, then:
In this experiment, 16 children diagnosed as having autism were administered the following Fecal Chymotrypsin Test in accordance with an embodiment of the invention. First, approximately 2 grams of stool were collected from each child and placed in a sterile container (although it is to be understood that any quantity of stool may be collected, as 2 grams of stool is not a required amount). Each stool sample was then analyzed using, e.g., an enzymatic photospectrometry analysis as is known by those skilled in the art, to determine the level of fecal chymotrypsin in the stool. Although the enzymatic photospectrophotometry process is preferred, any suitable conventional method may be used for measuring the fecal chymotrypsin levels. The measured chymotrypsin levels of the 16 autistic children are illustrated in FIG. 13.
After determining the chymotrypsin levels of the stools, each of these levels were compared with threshold chymotrypsin levels to determine if the child was likely to benefit from secretin administration. By way of example, with the fecal chymotrypsin tests of the stool samples being performed at 30° C., normal levels of chymotrypsin are deemed to lie above 8.4 U/gram, whereas pathologically abnormal levels are deemed to lie below 4.2 U/gram. In addition, chymotrypsin levels between 8.4 U/gram and 4.2 U/gram are considered equivocal, and further testing of the individual's fecal chymotrypsin levels over a period of time should be performed. […]
The results of Experiment 1 are illustrated in FIGS. 1-14. For instance, approximately one week after the first secretin infusion, the fecal chymotrypsin level of each of the 16 autistic children was measured again. […]
In this experiment, 37 autistic children with abnormal fecal chymotrypsin levels were administered secretin over the course of 6 months using the secretin infusion process described above. Their fecal chymotrypsin (FC) levels were measured weekly using the fecal chymotrypsin test described above.

Where [4] appears, read: of 37 children (pre-secretin 0).

Turning to secretin, the “effect on symptoms associated with Autism” value in test [1] was “ameliorating the symptoms associated with Autism”. For the same substance, in the test on autistic children [2], the CARS component scores result is “demonstrated improvement except for the fear component which increased”. Besides, in the test with autistic children [3] (setting [4]), the “# Autistic Children w/Equivocal FC levels” value turned out to be 2 and the “# Autistic Children w/normal FC levels” value is on record as 34. Further, the “# Autistic Children w/Abnormal FC levels” value in the test with autistic children [3] (of 37 children (pre-secretin 37)) is listed as 1.
